# “And” between values parts separate entries of the source, which are not always exact repeats. Identical values can stand only once.
# Test system: J774.2 mouse macrophages
# Assay: LPS-induced cytokine and chemokine levels in J774.2 mouse macrophage cell supernatant (ELISA)
# Assay type: cell-based
# Conditions: for CXCL1 % reduction / CXCL1 [pg/mL] Mean / CXCL2 % reduction / CXCL2 [pg/mL] Mean / MMP9 % reduction / MMP9 [pg/mL] Mean / CXCL2 / MMP9: J774.2 cells; for CXCL1 % reduction / CXCL1 [pg/mL] Mean / CXCL2 % reduction / CXCL2 [pg/mL] Mean / MMP9 % reduction / MMP9 [pg/mL] Mean / CCl2, % reduction / CCl2, Mean / IL-1β % reduction / IL-6 % reduction / TNF-α % reduction / TNF-α Mean / CCl2 / CXCL1 / TNF-α / CXCL2 / MMP9: LPS; for CCl2, % reduction / CCl2, Mean / IL-1β % reduction / IL-6 % reduction / TNF-α % reduction / TNF-α Mean / CCl2 / CXCL1 / TNF-α: J774.2 supernatant; for CCl2 / CXCL1 / TNF-α / CXCL2 / MMP9: individual replicate
structure (smiles),measurement,setting,value
C[C@@H]1C[C@H]2[C@@H]3CCC4=CC(=O)C=C[C@]4(C)[C@@]3(F)[C@@H](O)C[C@]2(C)[C@@]1(O)C(=O)CO [Dexamethasone],CXCL1 % reduction,compound 0.0003 µM,-75%
same,CXCL1 [pg/mL] Mean,compound 0.0003 µM,45 pg/mL
same,CXCL2 % reduction,compound 0.0003 µM,24%
same,CXCL2 [pg/mL] Mean,compound 0.0003 µM,24934 pg/mL
same,MMP9 % reduction,compound 0.0003 µM,2.49%
same,MMP9 [pg/mL] Mean,compound 0.0003 µM,941 pg/mL
same,CXCL1 % reduction,compound 0.001 µM,-60%
same,CXCL1 [pg/mL] Mean,compound 0.001 µM,41 pg/mL
same,CXCL2 % reduction,compound 0.001 µM,22%
same,CXCL2 [pg/mL] Mean,compound 0.001 µM,25589 pg/mL
same,MMP9 % reduction,compound 0.001 µM,-3.26%
same,MMP9 [pg/mL] Mean,compound 0.001 µM,993 pg/mL
same,CXCL1 % reduction,compound 0.003 µM,-60%
same,CXCL1 [pg/mL] Mean,compound 0.003 µM,41 pg/mL
same,CXCL2 % reduction,compound 0.003 µM,22%
same,CXCL2 [pg/mL] Mean,compound 0.003 µM,25475 pg/mL
same,MMP9 % reduction,compound 0.003 µM,0.402%
same,MMP9 [pg/mL] Mean,compound 0.003 µM,960 pg/mL
same,CXCL1 % reduction,compound 0.01 µM,-89%
same,CXCL1 [pg/mL] Mean,compound 0.01 µM,48 pg/mL
same,CXCL2 % reduction,compound 0.01 µM,23%
same,CXCL2 [pg/mL] Mean,compound 0.01 µM,24995 pg/mL
same,MMP9 % reduction,compound 0.01 µM,-17%
same,MMP9 [pg/mL] Mean,compound 0.01 µM,1120 pg/mL
same,CXCL1 [pg/mL] Mean,compound 0.03 µM,66 pg/mL
same,CXCL2 % reduction,compound 0.03 µM,17%
same,CXCL2 [pg/mL] Mean,compound 0.03 µM,26915 pg/mL
same,MMP9 % reduction,compound 0.03 µM,-7%
same,MMP9 [pg/mL] Mean,compound 0.03 µM,1030 pg/mL
same,CXCL1 % reduction,compound 0.1 µM,-158%
same,CXCL1 [pg/mL] Mean,compound 0.1 µM,66 pg/mL
same,CXCL2 % reduction,compound 0.1 µM,23%
same,CXCL2 [pg/mL] Mean,compound 0.1 µM,25079 pg/mL
same,MMP9 % reduction,compound 0.1 µM,-12%
same,MMP9 [pg/mL] Mean,compound 0.1 µM,1071 pg/mL
same,CXCL1 % reduction,compound 0.3 µM,-170%
same,CXCL1 [pg/mL] Mean,compound 0.3 µM,69 pg/mL
same,CXCL2 % reduction,compound 0.3 µM,24%
same,CXCL2 [pg/mL] Mean,compound 0.3 µM,24836 pg/mL
same,MMP9 % reduction,compound 0.3 µM,4.75%
same,MMP9 [pg/mL] Mean,compound 0.3 µM,921 pg/mL
same,CXCL1 % reduction,compound 1 µM,-156%
same,CXCL1 [pg/mL] Mean,compound 1 µM,66 pg/mL
same,CXCL2 % reduction,compound 1 µM,21%
same,CXCL2 [pg/mL] Mean,compound 1 µM,25750 pg/mL
same,MMP9 % reduction,compound 1 µM,-12%
same,MMP9 [pg/mL] Mean,compound 1 µM,1077 pg/mL
same,"LPS-induced TNF-α, IL-6, and IL-1β in supernatant","J774.2 mouse macrophages, 0.0003-1 µM",dose-dependent reductions
same,"CCl2, % reduction",0.0003 µM,30%
same,"CCl2, Mean",0.0003 µM,25543 pg/mL
same,IL-1β % reduction,0.0003 µM,-32%
same,IL-6 % reduction,0.0003 µM,-12%
same,TNF-α % reduction,0.0003 µM,-6.59%
same,TNF-α Mean,0.0003 µM,1457 pg/mL
same,CCl2,0.0003 µM,25420.3 pg/mL and 25666.2 pg/mL
same,CXCL1,0.0003 µM,47.7 pg/mL and 41.8 pg/mL
same,TNF-α,0.0003 µM,1400.2 pg/mL and 1513.9 pg/mL
same,"CCl2, % reduction",0.001 µM,27%
same,"CCl2, Mean",0.001 µM,26540 pg/mL
same,IL-1β % reduction,0.001 µM,-9%
same,IL-6 % reduction,0.001 µM,2.11%
same,TNF-α Mean,0.001 µM,1347 pg/mL
same,CCl2,0.001 µM,25719.1 pg/mL and 27360.7 pg/mL
same,CXCL1,0.001 µM,36.1 pg/mL and 45.9 pg/mL
same,TNF-α,0.001 µM,1307.1 pg/mL and 1387.6 pg/mL
same,"CCl2, % reduction",0.003 µM,17%
same,"CCl2, Mean",0.003 µM,29971 pg/mL
same,IL-1β % reduction,0.003 µM,20%
same,IL-6 % reduction,0.003 µM,-10%
same,TNF-α % reduction,0.003 µM,9%
same,TNF-α Mean,0.003 µM,1248 pg/mL
same,CCl2,0.003 µM,29318.9 pg/mL and 30622.8 pg/mL
same,CXCL1,0.003 µM,44.3 pg/mL and 37.5 pg/mL
same,TNF-α,0.003 µM,1276.5 pg/mL and 1220.4 pg/mL
same,"CCl2, % reduction",0.01 µM,11%
same,"CCl2, Mean",0.01 µM,32289 pg/mL
same,IL-1β % reduction,0.01 µM,44%
same,IL-6 % reduction,0.01 µM,16%
same,TNF-α % reduction,0.01 µM,16%
same,TNF-α Mean,0.01 µM,1149 pg/mL
same,CCl2,0.01 µM,33314.7 pg/mL and 31263.9 pg/mL
same,CXCL1,0.01 µM,53.3 pg/mL and 43.3 pg/mL
same,TNF-α,0.01 µM,1202.6 pg/mL and 1095.5 pg/mL
same,"CCl2, % reduction",0.03 µM,-11%
same,"CCl2, Mean",0.03 µM,39841 pg/mL
same,IL-1β % reduction,0.03 µM,63%
same,IL-6 % reduction,0.03 µM,40%
same,TNF-α % reduction,0.03 µM,30%
same,TNF-α Mean,0.03 µM,960 pg/mL
same,CCl2,0.03 µM,43664.9 pg/mL and 36017.7 pg/mL
same,CXCL1,0.03 µM,62.3 pg/mL and 70.1 pg/mL
same,TNF-α,0.03 µM,997.7 pg/mL and 922.4 pg/mL
same,"CCl2, % reduction",0.1 µM,-6%
same,"CCl2, Mean",0.1 µM,38142 pg/mL
same,IL-1β % reduction,0.1 µM,69%
same,IL-6 % reduction,0.1 µM,54%
same,TNF-α % reduction,0.1 µM,37%
same,TNF-α Mean,0.1 µM,868 pg/mL
same,CCl2,0.1 µM,39902.2 pg/mL and 36382.1 pg/mL
same,CXCL1,0.1 µM,70.5 pg/mL and 61.8 pg/mL
same,TNF-α,0.1 µM,957.1 pg/mL and 779.4 pg/mL
same,"CCl2, % reduction",0.3 µM,15%
same,"CCl2, Mean",0.3 µM,30843 pg/mL
same,IL-1β % reduction,0.3 µM,75%
same,IL-6 % reduction,0.3 µM,57%
same,TNF-α % reduction,0.3 µM,49%
same,TNF-α Mean,0.3 µM,706 pg/mL
same,CCl2,0.3 µM,33366.7 pg/mL and 28320.1 pg/mL
same,CXCL1,0.3 µM,70.8 pg/mL and 67.4 pg/mL
same,TNF-α,0.3 µM,780.3 pg/mL and 630.8 pg/mL
same,"CCl2, % reduction",1 µM,14%
same,"CCl2, Mean",1 µM,31213 pg/mL
same,IL-1β % reduction,1 µM,76%
same,IL-6 % reduction,1 µM,58%
same,TNF-α % reduction,1 µM,52%
same,TNF-α Mean,1 µM,671 pg/mL
same,CCl2,1 µM,32973.4 pg/mL and 29452.4 pg/mL
same,CXCL1,1 µM,65.4 pg/mL and 65.8 pg/mL
same,TNF-α,1 µM,708.1 pg/mL and 633.8 pg/mL
same,CXCL2,compound 0.0003 µM,24204.6 pg/mL and 25664.1 pg/mL
same,MMP9,compound 0.0003 µM,875.528 pg/mL and 1006.68 pg/mL
same,CXCL2,compound 0.001 µM,24896.6 pg/mL and 26281.1 pg/mL
same,MMP9,compound 0.001 µM,908.955 pg/mL and 1077.76 pg/mL
same,CXCL2,compound 0.003 µM,26063.4 pg/mL and 24885.7 pg/mL
same,MMP9,compound 0.003 µM,895.348 pg/mL and 1024.81 pg/mL
same,CXCL2,compound 0.01 µM,24945.6 pg/mL and 25043.7 pg/mL
same,MMP9,compound 0.01 µM,1078.2 pg/mL and 1162.43 pg/mL
same,CXCL2,compound 0.03 µM,28314.6 pg/mL and 25515.2 pg/mL
same,MMP9,compound 0.03 µM,1067.94 pg/mL and 991.656 pg/mL
same,CXCL2,compound 0.1 µM,25553.8 pg/mL and 24603.6 pg/mL
same,MMP9,compound 0.1 µM,1150.63 pg/mL and 991.656 pg/mL
same,CXCL2,compound 0.3 µM,25702.8 pg/mL and 23968.8 pg/mL
same,MMP9,compound 0.3 µM,877.422 pg/mL and 963.71 pg/mL
same,CXCL2,compound 1 µM,26832.3 pg/mL and 24668.5 pg/mL
same,MMP9,compound 1 µM,1055.41 pg/mL and 1099.09 pg/mL
